Experimental data published in US11072619B2, “Pyrazole[1,5-a] pyrimidine derivatives as kinase JAK inhibitors” (CELON PHARMA S.A., priority 2017, dated 2021).

Experiments:
Recombinant kinase JAK2 = Recombinant kinase JAK2 (Homo sapiens (Human), UniProt O60674); test: In vitro JAK kinase inhibition assay (ADP-Glo), JAK2; assay type: biochemical; conditions: 30 μM ATP, peptide IGF-1Rtide, averaged
Description: (§1) In Vitro JAK Kinase Inhibition Assay
(§2) The effects of the compounds of the invention were analysed in vitro using kinase JAK inhibition assay described below.
Tested compounds were dissolved in 100% DMSO, and obtained stock solutions were serially diluted in the reaction buffer (50 mM Tris pH 7.5, 10 mM MgCl2, 0.25 mM EGTA, 0.1 mM Na3VO4, 0.01% Triton X-100, 2.5 mM DTT). Recombinant kinases JAK1 (ProQinase), JAK2, or JAK3 (Carna Biosciences) were diluted in the dilution buffer (50 mM Tris-HCl pH 7.5, 150 mM NaCl, 10% glycerol, 0.05% Triton X-100, 1 mM DTT) to the final concentration 3 ng/μL (JAK1), 0.1 ng/μL (JAK2), or 0.2 ng/μL (JAK3). 5 μL of obtained solution of the compounds and 5 μL of the solution of respective kinases were added to the well of a 96-well plate. To initiate interaction between tested compounds and an enzyme, the plate was incubated for 10 minutes at 25° C. in a Plate-Thermo-Shaker with orbital stirring at 400 rpm. Wells of a negative control contained all reagents as mentioned above with the exception of tested compounds and kinase, and wells of a positive controls contained all reagents as mentioned above with the exception of tested compounds. […] Then the plate was incubated for 1 hour at 25° C. in a Plate-Thermo-Shaker, with orbital stirring at 400 rpm. Detection of ADP formed in the enzymatic reaction was then performed using ADP-Glo Kinase Assay kit (Promega). For this purpose, to the well of the 96-well plate 25 μL of ADP-Glo Reagent were added, and the plate was incubated for 40 minutes at 25° C. in a Plate-Thermo-Shaker with orbital stirring at 400 rpm. Then to the well of the 96-well plate 50 μL of Kinase Detection Reagent were added and the plate was incubated for 30 minutes at 25° C. in a Plate-Thermo-Shaker with orbital stirring at 400 rpm. After incubation, luminescence intensity was measured using Victor×Light luminometer (Perkin Elmer, Inc.).
(§3) On the basis of luminescence measurement in wells containing tested compounds at various concentrations and in control wells, IC50 values were determined. These values were determined with Graph Pad software v. 5.03, by fitting points of the curve using non-linear regression method. Each compound was tested in at least 6 repetitions (6 wells) on two 96-well plates, using at least 3 wells of each control.

Recombinant kinase JAK3 = Recombinant kinase JAK3 (Homo sapiens (Human), UniProt P52333); test: In vitro JAK kinase inhibition assay (ADP-Glo), JAK3; assay type: biochemical; conditions: 30 μM ATP, peptide IGF-1Rtide, averaged
Description: as §1, §2
(§4) Tested compounds were dissolved in 100% DMSO, and obtained stock solutions were serially diluted in the reaction buffer (50 mM Tris pH 7.5, 10 mM MgCl2, 0.25 mM EGTA, 0.1 mM Na3VO4, 0.01% Triton X-100, 2.5 mM DTT). Recombinant kinases JAK1 (ProQinase), JAK2, or JAK3 (Carna Biosciences) were diluted in the dilution buffer (50 mM Tris-HCl pH 7.5, 150 mM NaCl, 10% glycerol, 0.05% Triton X-100, 1 mM DTT) to the final concentration 3 ng/μL (JAK1), 0.1 ng/μL (JAK2), or 0.2 ng/μL (JAK3). 5 μL of obtained solution of the compounds and 5 μL of the solution of respective kinases were added to the well of a 96-well plate. To initiate interaction between tested compounds and an enzyme, the plate was incubated for 10 minutes at 25° C. in a Plate-Thermo-Shaker with orbital stirring at 400 rpm. Wells of a negative control contained all reagents as mentioned above with the exception of tested compounds and kinase, and wells of a positive controls contained all reagents as mentioned above with the exception of tested compounds. Enzymatic reaction was initiated by the addition of 15 μL of the following solution: 5× concentrated reaction buffer (50 mM Tris pH 7.5, 10 mM MgCl2, 0.25 mM EGTA, 0.1 mM Na3VO4, 0.01% Triton X-100, 2.5 mM DTT), water, 30 μM ATP and for particular kinases: JAK1—60 μM peptide IRS-1 (Enzo), JAK2 or JAK3—10 μM peptide IGF-1Rtide (Lipopharm). Then the plate was incubated for 1 hour at 25° C. in a Plate-Thermo-Shaker, with orbital stirring at 400 rpm. Detection of ADP formed in the enzymatic reaction was then performed using ADP-Glo Kinase Assay kit (Promega). For this purpose, to the well of the 96-well plate 25 μL of ADP-Glo Reagent were added, and the plate was incubated for 40 minutes at 25° C. in a Plate-Thermo-Shaker with orbital stirring at 400 rpm. Then to the well of the 96-well plate 50 μL of Kinase Detection Reagent were added and the plate was incubated for 30 minutes at 25° C. in a Plate-Thermo-Shaker with orbital stirring at 400 rpm. After incubation, luminescence intensity was measured using Victor×Light luminometer (Perkin Elmer, Inc.).
as §3
(§5) Averaged results of kinases JAK inhibition activity for selected compounds of the present invention are presented below in Table 1.

TF-1 cells [1] = test: TF-1 cells viability in vitro in the presence of IL-4 (JAK1/JAK3 activation); assay type: cell-based; conditions: for IC50: Homo sapiens, TF-1, 20 ng/mL IL-4, 72 hours, ATPlite, read-out: JAK1,3 IL4 (EC50, inhibition of viability of TF-1 cells); for JAK2/JAK1,3 Ratio: ratio of TF-1 viability EC50 with IL3 to EC50 with IL4
Description: (§6) Assay for TF-1 Cells Viability In Vitro
(§7) The effects of the activity of the compounds of the invention were tested in vitro using cells viability assay described below.
(§8) Tested compounds were dissolved in 100% DMSO, and obtained stock solutions were serially diluted in OptiMEM medium (Reduced Serum Medium-Thermo Fisher Scientific). TF-1 cells (DSMZ no.: ACC 334) in culture medium (80% RPMI 1640+20% FBS) ad in the presence of 5 ng/mL IL-3 or 20 ng/mL IL-4 were deposited on 96-well plates in the volume of 90 μl per well, 10 thousands of cells per well. To a well of the 96-well plate 10 μL of the prepared 10× stock solutions of the compounds. Cells on 96-well plates were incubated with the compounds for 72 hours at 37° C., 5% CO2. Subsequently, viability of the cells was measured using ATPlite kit (Perkin Elmer). For this purpose, 50 μL of lysis buffer (mammalian cell lysis solution) were added to a well of the 96-well plate and the plate was incubated for 10 minutes at 25° C. in a plate thermo-shaker with orbital stirring at 600 rpm. Then to a well of the 96-well plate 50 μL of substrate (substrate solution) were added and incubated for 15 minutes at in dark, in a plate thermo-shaker with orbital stirring at 600 rpm. After incubation time, luminescence intensity in a well was measured using Victor×Light luminometer (Perkin Elmer, Inc.).
as §3, with “luminescence intensity measurements” for “luminescence measurement”, “in well” for “in wells”, “control wells EC50” for “control wells, IC50”

TF-1 cells [2] = test: TF-1 cells viability in vitro in the presence of IL-3 (JAK2 activation); assay type: cell-based; conditions: Homo sapiens, 5 ng/mL IL-3, 72 hours, ATPlite, read-out: JAK2 IL3 (EC50, inhibition of viability of TF-1 cells)
Description: as §6, §7
as §8, with “TF-1 cells (DSMZ no.: ACC 334) in culture medium (80% RPMI 1640+20% FBS) ad in the presence of 5 ng/mL IL-3 or 20 ng/mL IL-4 were deposited on 96-well plates in the volume of 90 μl per well, 10 thousands of cells per well.” left out
On the basis of luminescence intensity measurements in well containing tested compounds at various concentrations and in control wells EC50 values were determined. These values were determined with Graph Pad software v. […] Each compound was tested in at least 6 repetitions (6 wells) on two 96-well plates, using at least 3 wells of each control.

Recombinant kinase JAK1 = Recombinant kinase JAK1 (Homo sapiens (Human), UniProt P23458); test: In vitro JAK kinase inhibition assay (ADP-Glo), JAK1; assay type: biochemical; conditions: 30 μM ATP, peptide IRS-1, averaged
Description: as §1, §2, §4, §3, §5

Recombinant kinase JAK1, sequence (P23458 whole entry): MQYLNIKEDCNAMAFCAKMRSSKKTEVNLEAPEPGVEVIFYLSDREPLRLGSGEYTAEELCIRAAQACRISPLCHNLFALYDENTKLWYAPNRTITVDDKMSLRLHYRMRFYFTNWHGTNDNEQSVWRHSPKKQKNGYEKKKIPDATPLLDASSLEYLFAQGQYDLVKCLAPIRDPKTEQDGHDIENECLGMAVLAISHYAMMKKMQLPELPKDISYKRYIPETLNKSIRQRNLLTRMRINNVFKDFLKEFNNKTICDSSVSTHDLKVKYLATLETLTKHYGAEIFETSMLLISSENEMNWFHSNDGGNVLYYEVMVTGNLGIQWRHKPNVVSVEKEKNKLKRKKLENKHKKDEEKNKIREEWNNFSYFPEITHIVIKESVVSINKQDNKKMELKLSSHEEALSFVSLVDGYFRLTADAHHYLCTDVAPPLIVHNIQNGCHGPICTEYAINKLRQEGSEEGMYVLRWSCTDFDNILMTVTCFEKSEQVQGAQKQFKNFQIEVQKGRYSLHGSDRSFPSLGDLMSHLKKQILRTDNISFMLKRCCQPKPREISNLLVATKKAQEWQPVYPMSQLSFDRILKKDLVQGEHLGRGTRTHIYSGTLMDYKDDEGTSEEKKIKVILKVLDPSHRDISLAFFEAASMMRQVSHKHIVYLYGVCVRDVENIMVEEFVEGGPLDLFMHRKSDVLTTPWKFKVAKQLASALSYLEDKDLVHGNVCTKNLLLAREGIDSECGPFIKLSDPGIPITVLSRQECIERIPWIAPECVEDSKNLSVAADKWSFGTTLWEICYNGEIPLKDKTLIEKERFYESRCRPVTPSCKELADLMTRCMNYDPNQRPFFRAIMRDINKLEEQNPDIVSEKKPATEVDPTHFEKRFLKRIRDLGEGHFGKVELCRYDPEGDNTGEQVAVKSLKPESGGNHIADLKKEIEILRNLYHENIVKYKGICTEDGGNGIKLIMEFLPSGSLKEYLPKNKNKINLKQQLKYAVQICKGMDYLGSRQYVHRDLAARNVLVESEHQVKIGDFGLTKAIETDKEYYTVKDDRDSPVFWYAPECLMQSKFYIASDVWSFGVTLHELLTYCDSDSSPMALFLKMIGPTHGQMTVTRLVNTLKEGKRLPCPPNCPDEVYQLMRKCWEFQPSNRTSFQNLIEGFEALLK
Recombinant kinase JAK2, sequence (O60674 whole entry): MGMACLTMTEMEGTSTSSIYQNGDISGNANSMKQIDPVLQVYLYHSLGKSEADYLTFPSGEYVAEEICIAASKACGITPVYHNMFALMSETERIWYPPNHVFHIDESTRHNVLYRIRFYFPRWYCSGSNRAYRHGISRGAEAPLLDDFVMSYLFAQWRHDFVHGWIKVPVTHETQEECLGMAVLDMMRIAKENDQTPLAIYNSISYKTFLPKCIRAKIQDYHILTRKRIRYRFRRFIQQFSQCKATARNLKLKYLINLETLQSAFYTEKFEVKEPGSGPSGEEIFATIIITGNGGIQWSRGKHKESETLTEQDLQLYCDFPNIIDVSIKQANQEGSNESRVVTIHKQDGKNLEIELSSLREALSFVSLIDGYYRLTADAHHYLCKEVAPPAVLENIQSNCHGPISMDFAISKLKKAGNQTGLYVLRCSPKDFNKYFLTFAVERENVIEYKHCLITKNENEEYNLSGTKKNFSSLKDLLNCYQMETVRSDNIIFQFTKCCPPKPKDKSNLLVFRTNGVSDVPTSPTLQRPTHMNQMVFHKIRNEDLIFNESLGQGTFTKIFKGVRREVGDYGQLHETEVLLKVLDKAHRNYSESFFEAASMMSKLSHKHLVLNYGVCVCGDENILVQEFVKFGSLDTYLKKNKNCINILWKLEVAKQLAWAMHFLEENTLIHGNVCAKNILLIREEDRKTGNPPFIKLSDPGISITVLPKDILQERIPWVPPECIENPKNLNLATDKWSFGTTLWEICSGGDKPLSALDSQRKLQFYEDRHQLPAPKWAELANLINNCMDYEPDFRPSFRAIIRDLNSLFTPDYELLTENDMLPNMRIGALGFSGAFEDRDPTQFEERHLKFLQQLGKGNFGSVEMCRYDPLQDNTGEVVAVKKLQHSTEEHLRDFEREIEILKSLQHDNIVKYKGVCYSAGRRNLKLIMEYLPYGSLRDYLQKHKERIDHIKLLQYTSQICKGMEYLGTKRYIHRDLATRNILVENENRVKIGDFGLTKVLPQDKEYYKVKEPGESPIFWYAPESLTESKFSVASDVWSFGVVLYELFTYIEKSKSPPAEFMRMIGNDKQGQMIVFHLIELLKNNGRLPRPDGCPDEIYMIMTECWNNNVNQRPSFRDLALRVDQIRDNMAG
Recombinant kinase JAK3, sequence (P52333 whole entry): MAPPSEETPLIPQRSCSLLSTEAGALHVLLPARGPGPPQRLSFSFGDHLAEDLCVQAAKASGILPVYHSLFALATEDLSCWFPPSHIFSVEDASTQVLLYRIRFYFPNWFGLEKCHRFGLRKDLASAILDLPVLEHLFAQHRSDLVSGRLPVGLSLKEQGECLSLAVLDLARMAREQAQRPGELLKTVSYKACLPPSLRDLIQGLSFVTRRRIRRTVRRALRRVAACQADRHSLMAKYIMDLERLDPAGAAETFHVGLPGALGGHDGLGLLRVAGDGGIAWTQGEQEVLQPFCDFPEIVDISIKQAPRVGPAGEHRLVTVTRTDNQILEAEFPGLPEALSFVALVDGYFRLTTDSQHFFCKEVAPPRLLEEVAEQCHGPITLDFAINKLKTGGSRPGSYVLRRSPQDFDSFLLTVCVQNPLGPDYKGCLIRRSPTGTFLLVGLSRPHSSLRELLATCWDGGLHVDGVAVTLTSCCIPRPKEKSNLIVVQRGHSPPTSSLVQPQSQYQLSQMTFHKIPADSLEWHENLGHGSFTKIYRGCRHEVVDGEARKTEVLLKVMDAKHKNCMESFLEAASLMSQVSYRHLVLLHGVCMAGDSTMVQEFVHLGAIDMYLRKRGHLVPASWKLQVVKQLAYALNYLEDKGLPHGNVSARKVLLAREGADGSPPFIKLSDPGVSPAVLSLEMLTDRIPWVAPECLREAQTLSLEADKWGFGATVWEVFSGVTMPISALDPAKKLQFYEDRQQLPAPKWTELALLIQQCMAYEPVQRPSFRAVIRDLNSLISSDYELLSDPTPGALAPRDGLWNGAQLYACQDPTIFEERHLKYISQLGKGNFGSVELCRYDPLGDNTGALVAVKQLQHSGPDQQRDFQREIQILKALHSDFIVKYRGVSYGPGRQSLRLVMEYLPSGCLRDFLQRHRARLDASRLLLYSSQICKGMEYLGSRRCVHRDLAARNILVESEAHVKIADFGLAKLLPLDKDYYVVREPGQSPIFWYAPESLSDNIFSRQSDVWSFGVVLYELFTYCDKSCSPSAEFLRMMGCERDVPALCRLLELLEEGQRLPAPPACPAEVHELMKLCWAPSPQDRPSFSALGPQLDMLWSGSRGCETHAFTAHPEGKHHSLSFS

Structure (SMILES)	IC50 (Recombinant kinase JAK2) [nM]	IC50 (Recombinant kinase JAK3) [nM]	IC50 (Recombinant kinase JAK1) [nM]	IC50 (TF-1 cells [1]) [nM]	JAK2/JAK1,3 Ratio (TF-1 cells [1])	IC50 (TF-1 cells [2]) [nM]
COc1ccc(F)c(-c2cc3ncc(C(N)=O)c(N[C@@H]4CCN(c5ccc(C#N)nn5)CC4(C)C)n3n2)c1 [Example 2, (R)-7-((1-(6-Cyanopyridazin-3-yl)-3,3-dimethylpiperidin-4-yl)amino)-2-(2-fluoro-5-methoxyphenyl)pyrazolo[1,5-a]pyrimidine-6-carboxamide]	59.3	3.77	3.74	242	5	1200
CC1(C)CN(c2ccc(C#N)nn2)CC[C@H]1Nc1c(C(N)=O)cnc2cc(-c3cccnc3)nn12 [Example 3, (R)-7-((1-(6-Cyanopyridazin-3-yl)-3,3-dimethylpiperidin-4-yl)amino)-2-(pyridin-3-yl)pyrazolo[1,5-a]pyrimidine-6-carboxamide]	31.1	1.58	4.47	–	–	–
CCOc1ccc(-c2cc3ncc(C(N)=O)c(N[C@@H]4CCN(c5ccc(C#N)nn5)CC4(C)C)n3n2)cn1 [Example 5, (R)-7-((1-(6-Cyanopyridazin-3-yl)-3,3-dimethylpiperidin-4-yl)amino)-2-(6-ethoxy-pyridin-3-yl)pyrazolo[1,5-a]pyridimine-6-carboxamide]	34.4	1.8	8.08	–	–	–
COc1ncc(-c2cc3ncc(C(N)=O)c(N[C@@H]4CCN(c5ccc(C#N)nn5)CC4(C)C)n3n2)cn1 [Example 8, (R)-7-((1-(6-Cyanopyridazin-3-yl)-3,3-dimethylpiperidin-4-yl)amino)-2-(2-methoxy-pyrimidin-5-yl)pyrazolo[1,5-a]pyrimidine-6-carboxamide]	26.8	2.24	8.54	203	10	2020
CCOc1ncc(-c2cc3ncc(C(N)=O)c(N[C@@H]4CCN(c5ccc(C#N)nn5)CC4(C)C)n3n2)cn1 [Example 9, (R)-7-((1-(6-Cyanopyridazin-3-yl)-3,3-dimethylpiperidin-4-yl)amino)-2-(2-ethoxy-pyrimidin-5-yl)pyrazolo[1,5-a]pyrimidine-6-carboxamide]	89.6	18.8	47.5	–	–	–

Compounds with a lower IC50 (Recombinant kinase JAK2), results first:

IC50 (Recombinant kinase JAK2) [nM]	IC50 (Recombinant kinase JAK3) [nM]	IC50 (Recombinant kinase JAK1) [nM]	Structure (SMILES)	IC50 (TF-1 cells [1]) [nM]	JAK2/JAK1,3 Ratio (TF-1 cells [1])	IC50 (TF-1 cells [2]) [nM]
19	1.2	1.8	COc1ccc(-c2cc3ncc(C(N)=O)c(N[C@@H]4CCN(c5ccc(C#N)nn5)CC4(C)C)n3n2)cc1 [Example 1, (R)-7-((1-(6-Cyanopyridazin-3-yl)-3,3-dimethylpiperidin-4-yl)amino)-2-(4-methoxy-phenyl)pyrazolo[1,5-a]pyrimidine-6-carboxamide]	350	2.4	837
12.8	0.6	2.37	CC1(C)CN(c2ccc(C#N)nn2)CC[C@H]1Nc1c(C(N)=O)cnc2cc(-c3ccc(F)nc3)nn12 [Example 10, (R)-7-((1-(6-Cyanopyridazin-3-yl)-3,3-dimethylpiperidin-4-yl)amino)-2-(6-fluoro-pyridin-3-yl)pyrazolo[1,5-a]pyrimidine-6-carboxamide]	112	11.5	1280
2.98	0.16	0.38	CC1(C)CN(c2ccc(C#N)nn2)CC[C@H]1Nc1c(C(N)=O)cnc2cc(-c3ccc(N)nc3)nn12 [Example 6, (R)-2-(6-Aminopyridin-3-yl)-7-((1-(6-cyanopyridazin-3-yl)-3,3-dimethylpiperidin-4-yl)amino)pyrazolo[1,5-a]pyrimidine-6-carboxamide]	361	9.2	3330
